Experimental data reported in US20020064790A1, “Design of drugs involving receptor-ligand-DNA interactions” (priority 1993, published 2002).
“Also recorded” adds a separate entry of the source. Counter-ions that a name gives are not always drawn. Like-named read-outs stand apart in the source and are kept apart here.

What was measured:
YAK lymphoma cells = test: Growth inhibition in YAK lymphoma cells; assay type: cell-based; settings: rank among derivatives
Protocol: (§1) These synthetic derivatives were assessed for biological potency by measuring their growth inhibitory effects on various cell lines using concentrations of […] based on the reported IC50 of 3-phenylacetylamino-2,6 piperidinedione in Nb2 cells.

[1] = tested on: human leukemia (K652) cells; test: Growth inhibition in human leukemia K562 cells; assay type: cell-based
rat Nb2 lymphoma cells = test: Inhibition of prolactin stimulated growth of Nb2 lymphoma cells; assay type: cell-based
[2] = tested on: MCF-7 (E-3) human breast cancer cells; test: Inhibition of estrogen stimulated growth of MCF-7 (E-3) cells, 9 day model; assay type: cell-based; settings: for inhibition of estrogen stimulated cell growth: MCF-7 (E-3) cells; for IC50: MCF-7 (E-3), estrogen stimulated growth, 9 day model
estrogen receptor [3] = biological target: T1, estrogen receptor (Homo sapiens, UniProt P03372); test: Estrogen receptor binding
T1 sequence (P03372 1-595): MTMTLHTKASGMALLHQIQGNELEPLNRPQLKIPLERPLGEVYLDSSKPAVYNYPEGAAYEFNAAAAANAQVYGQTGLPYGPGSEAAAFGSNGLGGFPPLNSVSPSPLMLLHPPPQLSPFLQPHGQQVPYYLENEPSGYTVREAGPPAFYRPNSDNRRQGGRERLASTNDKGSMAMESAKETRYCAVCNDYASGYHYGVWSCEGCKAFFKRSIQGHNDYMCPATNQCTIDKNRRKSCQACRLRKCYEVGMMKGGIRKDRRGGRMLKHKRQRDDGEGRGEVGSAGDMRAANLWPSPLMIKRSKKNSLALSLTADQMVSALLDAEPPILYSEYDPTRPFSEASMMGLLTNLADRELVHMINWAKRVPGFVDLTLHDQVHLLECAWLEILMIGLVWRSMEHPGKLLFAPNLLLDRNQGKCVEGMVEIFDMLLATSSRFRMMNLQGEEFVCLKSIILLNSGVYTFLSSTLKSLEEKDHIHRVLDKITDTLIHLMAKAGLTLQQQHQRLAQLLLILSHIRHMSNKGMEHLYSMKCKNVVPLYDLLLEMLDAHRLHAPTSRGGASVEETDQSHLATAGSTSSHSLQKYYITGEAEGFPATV

[4] = tested on: various animal and human tumor cells; test: Growth inhibition in various animal and human tumor cells; assay type: cell-based
Protocol: as §1
3-Phenylacetylamino-2,6-piperidinedione (A10) is a modified amino-acid derivative, which was originally isolated from freeze-dried human urine. […] The focus of the following study was to develop more- potent analogs. […] It was observed that placing a hydroxyl group at the para position of the phenyl group of A10 would enable a second hydrogen bond to form thereby substantially enhancing fit as reported by Hendry et al., J. Steroid Biochem. Molec. Biol. 48:495-505 (1994), the teachings of which are hereby incorporated by reference in their entirety.

androgenic activity = settings: published findings by Hilgar and Hummel; cited from earlier work
[5] = tested on: uterotropic (estrogenic) activity; test: Uterotropic (estrogenic) activity in vivo
[6] = tested on: MCF-7 human breast cancer cells; test: MCF-7 cell growth (cell number) with SGI compounds; assay type: cell-based; settings: dose 10^−8 M; control 252,197 cells
estrogen receptor [7] = biological target: T1, estrogen receptor; settings: cited from earlier work
[8] = tested on: uterotropic (estrogenic) activity; settings: relative to estradiol, Peters et al.; cited from earlier work
Nb2 lymphoma cells = test: DNA synthesis measured by thymidine incorporation; assay type: cell-based, rat
Description: (§2) The mode of action of these piperidinediones is still not proven. […] At the same time, direct binding of such anti-estrogens to DNA appears to be weak. Taken as a whole, these findings support the possibility of a weak interaction of the piperidinediones with both DNA and the estrogen receptor, involving a receptor mediated insertion of the ligand into DNA.

DNA = test: Binding of piperidinedione to DNA
Description: as §2

## p-hydroxy-3-phenylacetylamino-2,6-piperidinedione
YAK lymphoma cells
  growth inhibitory effect: most active derivative
[1]; 10^−5 to 10^−2 M
  dose response comparison of growth inhibition: more active than the unsubstituted compound
[1]; rank among analogs
  growth inhibitory effect: most active analog
Rat Nb2 lymphoma cells; Nb2 lymphoma cells, 10^−4 M to 10^−3 M
  growth inhibition over concentration range: more active in Nb2 lymphoma cells than 3-phenylacetylamino-2,6 piperidinedione
Rat Nb2 lymphoma cells; rat Nb2 lymphoma cells
  inhibition of prolactin stimulated growth: greatest activity
[2]
  inhibition of estrogen stimulated cell growth: inhibited
  IC50: 7 µM
Estrogen receptor [3]
  binding for the estrogen receptor: neither 3-phenylacetylamino-2,6-piperidinedione nor phydroxy-3-phenylacetylamino-2,6-piperidinedione exhibited appreciable binding
[4]
  potency in tumor cell growth inhibition relative to A10: most potent compound
[4]; listed as p-OH-A10
  potency in tumor cell growth inhibition relative to A10: as much as an order of magnitude more active than A10

## C[C@]12CCC(=O)C[C@@H]1CC[C@@H]1[C@@H]2CC[C@]2(C)[C@@H](O)CC[C@@H]12 [5β-dihydrotestosterone]
Androgenic activity
  androgenic activity: essentially inactive

## CC(=O)O[C@H]1C[C@]2(C)[C@@H](O)CC[C@H]2[C@@H]2CCc3cc(O)ccc3[C@H]21 [11β-acetoxyestradiol]
[5]
  estrogenic (uterotropic) activity in vivo: more active than estradiol

## CC/C(=C(\c1ccccc1)c1ccc(OCCN(C)C)cc1)c1ccccc1 [tamoxifen citrate]
[6]
  number of MCF-7 cells: 187,759 cells

## C[C@@H]1Cc2cc(O)ccc2[C@@H]2[C@@H]1[C@@H]1CC[C@H](O)[C@@]1(C)C[C@@H]2O[N+](=O)[O-] [7α-methylestradiol-11β-nitrate ester, 3,11β, 17β-trihydroxy-7α-methylestra-1,3, 5 (10)-triene 11-nitrate ester]
Estrogen receptor [7]
  binding to the estrogen receptor relative to estradiol: less than 6 % of the binding of estradiol
[8]
  uterotropic activity: considerably greater than that of estradiol

## O=C1CCC(NC(=O)Cc2ccc(F)cc2)C(=O)N1 (stereo not drawn) [p-fluoro derivative]
[4]
  potency in tumor cell growth inhibition relative to A10: lack of increased potency

## O=C1CCC(NC(=O)Cc2ccccc2)C(=O)N1 (stereo not drawn) [3-phenylacetylamino-2,6-piperidinedione]
[2]; Homo sapiens, MCF7, 216 h
  IC50: 3000 µM
[2]
  inhibition of estrogen stimulated cell growth: inhibited
Nb2 lymphoma cells
  DNA synthesis measured by thymidine incorporation: significantly inhibited
DNA
  covalent adducts with DNA: No covalent adducts
DNA; in comparison to classical intercalating drugs
  binding to DNA: weak and reversible
Estrogen receptor [3]
  binding for the estrogen receptor: neither 3-phenylacetylamino-2,6-piperidinedione nor phydroxy-3-phenylacetylamino-2,6-piperidinedione exhibited appreciable binding

## C[C@]12CC[C@H]3c4ccc(O)cc4CC[C@H]3[C@@H]1CC[C@@H]2O [9β-estradiol]
[5]
  estrogenic (uterotropic) activity in vivo: inactive; also recorded: little uterotropic activity

## C[C@]12CCC(=O)C[C@@H]1CC[C@@H]1[C@@H]2CC[C@]2(C)[C@@H](O)CC[C@@H]12 [5α-dihydrotestosterone]
Androgenic activity
  androgenic activity: highly active androgen
